Measured values taken from Sander's compilation of Henry's law constants.

Test: Henry solubility constant Hcp at 298.15 K (mol/(m3 Pa))
[1] = reference: Bakierowska and Trzeszczyński (2003)
[2] = reference: Buttery et al. (1971)
[3] = reference: Copolovici and Niinemets (2005)
[4] = reference: Schuhfried et al. (2015)
[5] = reference: Bernauer and Dohnal (2008)
[6] = reference: Souchon et al. (2004)
[7] = reference: Warner et al. (1980)

Structure (SMILES): CC1(C)[C@H]2CC[C@](C)(C2)[C@H]1O [(1R)-1,3,3-trimethylbicyclo[2.2.1]heptan-2-ol]
- Henry solubility constant Hcp (reference: Fichan et al. (1999)): 0.36

Structure (SMILES): Cc1cc(Cl)ccc1OCC(=O)O [(2-methyl-4-chlorophenoxy)acetic acid]
- Henry solubility constant Hcp (reference: Mabury and Crosby (1996)): > 99

Structure (SMILES): C/C=C/CCl [(E)-1-chloro-2-butene]
- Henry solubility constant Hcp [1]: 0.0031

Structure (SMILES): CCCCCC/C=C/C=O [(E)-2-nonenal]
- Henry solubility constant Hcp (reference: Roberts and Pollien (1997)): 0.058

Structure (SMILES): CCCCC/C=C/C=O [(E)-2-octenal]
- Henry solubility constant Hcp [2]: 0.13

Structure (SMILES): C/C=C/C(=O)C1=C(C)C=CCC1(C)C [(E)-β-damascenone]
- Henry solubility constant Hcp (reference: Wieland et al. (2015)): 0.32

Structure (SMILES): C/C=C/C=C/C=O [(E,E)-2,4-hexadienal]
- Henry solubility constant Hcp [2]: 1

Structure (SMILES): C=C(C)[C@H]1CC=C(C)CC1 [(R)-1-methyl-4-(1-methylethenyl)-cyclohexene]
- Henry solubility constant Hcp [3]: 0.00035
- Henry solubility constant Hcp [4]: 0.00038

Structure (SMILES): CC1=CC[C@H](C(C)C)C=C1 [(R)-(−)-α-phellandrene]
- Henry solubility constant Hcp [4]: 0.00034

Structure (SMILES): C=C(C)[C@@H]1CC=C(C)CC1 [(S)-1-methyl-4-(1-methylethenyl)-cyclohexene]
- Henry solubility constant Hcp [3]: 0.00035
- Henry solubility constant Hcp [4]: 0.00037

Structure (SMILES): C/C=C\CCl [(Z)-1-chloro-2-butene]
- Henry solubility constant Hcp [1]: 0.0012

Structure (SMILES): CC/C=C\CCC=O [(Z)-4-heptenal]
- Henry solubility constant Hcp (reference: Straver and de Loos (2005)): 0.088

Structure (SMILES): CN1CCN(C)CC1 [N,N'-dimethylpiperazine]
- Henry solubility constant Hcp (reference: Nguyen (2013)): 200

Structure (SMILES): CN(Cl)Cl [N,N-dichloromethylamine]
- Henry solubility constant Hcp (reference: Cimetiere and de Laat (2009)): 0.0033

Structure (SMILES): OCCN1CCNCC1 [N-(2-hydroxyethyl)piperazine]
- Henry solubility constant Hcp (reference: Nguyen (2013)): 2900

Structure (SMILES): CC(=O)N1CCCC1 [N-acetylpyrrolidine]
- Henry solubility constant Hcp (reference: Gibbs et al. (1991)): 6200

Structure (SMILES): CCCCNC(C)=O [N-butylacetamide]
- Henry solubility constant Hcp (reference: Gibbs et al. (1991)): 2700

Structure (SMILES): CNCCCN [N-methyl-1,3-propanediamine]
- Henry solubility constant Hcp (reference: Kim et al. (2008)): 2100
- Henry solubility constant Hcp (reference: Nguyen (2013)): 1400

Structure (SMILES): CN1CCCC1=O [N-methyl-2-pyrrolidone]
- Henry solubility constant Hcp (reference: Bernauer and Dohnal (2009)): 2100
- Henry solubility constant Hcp (reference: Kim et al. (2000)): 3100

Structure (SMILES): CNC(C)=O [N-methylacetamide]
- Henry solubility constant Hcp [5]: 3200

Structure (SMILES): CN(CCO)CCO [N-methyldiethanolamine]
- Henry solubility constant Hcp (reference: Kim et al. (2008)): 400000
- Henry solubility constant Hcp (reference: Nguyen (2013)): 3900

Structure (SMILES): CNC=O [N-methylmethanamide]
- Henry solubility constant Hcp [5]: 1500

Structure (SMILES): CN1CCNCC1 [N-methylpiperazine]
- Henry solubility constant Hcp (reference: Nguyen (2013)): 1800

Structure (SMILES): CCN(CC)N=O [N-nitrosodiethylamine]
- Henry solubility constant Hcp (reference: Klein (1982)): 5.6
- Henry solubility constant Hcp (reference: Thompson et al. (2018)): 0.012

Structure (SMILES): CCN(CC)C(=O)SCc1ccc(Cl)cc1 [S-(4-chlorobenzyl) diethylthiocarbamate]
- Henry solubility constant Hcp (reference: Kawamoto and Urano (1989)): 4.9

Structure (SMILES): CCCN(CCC)C(=O)SCC [S-ethyl dipropylthiocarbamate]
- Henry solubility constant Hcp (reference: Breiter et al. (1998)): 0.038
- Henry solubility constant Hcp (reference: Reyes-Pérez et al. (2008)): 0.56

Structure (SMILES): CCCC(=O)SC [S-methyl butanethioate]
- Henry solubility constant Hcp [6]: 0.026

Structure (SMILES): c1cc2c3c(cccc3c1)CC2 [acenaphthene]
- Henry solubility constant Hcp (reference: Mackay et al. (1979)): 0.068
- Henry solubility constant Hcp [7]: 0.041

Structure (SMILES): C1=Cc2cccc3cccc1c23 [acenaphthylene]
- Henry solubility constant Hcp [7]: 0.087

Structure (SMILES): ClC1=C(Cl)[C@]2(Cl)[C@H]3[C@H]([C@@H]4C=C[C@H]3C4)[C@@]1(Cl)C2(Cl)Cl [aldrin]
- Henry solubility constant Hcp [7]: 0.02

Structure (SMILES): C=CCN=C=S [allyl isothiocyanate]
- Henry solubility constant Hcp [6]: 0.021

Structure (SMILES): C=CCSC [allyl methyl sulfide]
- Henry solubility constant Hcp (reference: Schuhfried et al. (2011)): 0.0042

Structure (SMILES): c1ccc2cc3ccccc3cc2c1 [anthracene]
- Henry solubility constant Hcp (reference: Alaee et al. (1996)): 0.2
- Henry solubility constant Hcp (reference: Bamford et al. (1999b)): 0.15
- Henry solubility constant Hcp (reference: Reza and Trejo (2004)): 0.23
- Henry solubility constant Hcp (reference: Southworth (1979)): 0.15
- Henry solubility constant Hcp (reference: Webster et al. (1985)): 0.27
